Test results taken from patent US20090036461A1, “Use of Azabicyclo Hexane Derivatives” (priority 2005, published 2009).

Key:
male rats [1] = experiment: copulatory (consummatory) behaviour of male rats with a receptive female; format: in vivo, Wistar rats; details: -1 hour; for Ejaculation latency / Intromission latency / Mount latency / Post ejaculatory interval / n. of intromissions / n. of mounts: male rats, n = 9, mean ± s.e.m.
Description: (§1) Background: In order to evaluate the effect on natural rewards and to potentially differentiate this approach compared with clinically active gold standards, the effect of the title compound (0.03, 0.3 and 3 mg/kg i.p.; −1 hour, prepared in an analogous way with Example 40) on sexual desire and consummatory performance was evaluated in the rat after acute administration. The effect of the title compound was assessed according to a Latin squared experimental design in male (about 300 g upon arrival) and female (250 g upon arrival) Wistar rats.
(§2) Method—Male rats, sexually experienced were treated with the title compound and submitted 1-hr later to a sexual incentive motivation test (10 minutes) in which male rats were singly exposed to receptive female and active male incentives (Agmo A., Journal of Comparative Psychology. 117(1), March 2003, 3-14). The following parameters were scored: (1) time spent in the incentive zones (close to the incentive cage); (2) number of visits to the zones, and (3) preference score (time spent in the sexual incentive zone/(time in the sexual incentive zone+time in the social incentive zone)). Immediately after the incentive motivation test each subject was transferred to an observation cage in the presence of a receptive female and its copulatory behaviour was then recorded until the end of the 1st post-ejaculatory interval. In the observation cage, the following behavioural parameters were recorded: (1) mount latency (time from the introduction of the female until the first mount with pelvic thrusting); (2) intromission latency (time from the introduction of the female until the first mount with vaginal penetration); (3) ejaculation latency (time from the 1st intromission until ejaculation); (4) post-ejaculatory interval (time from ejaculation until the following intromission); (5) number of mounts, and (6) number of intromission.
(§3) Results—Data are expressed as mean ±s.e.m.

D3 = D3 (Homo sapiens, UniProt P35462); experiment: functional pKi (fpKi) at D3, comparison of separated enantiomers; format: biochemical; details: difference in fpKi between the two separated enantiomers of the same example
male rats [2] = experiment: sexual incentive motivation test in male rats after acute administration; format: in vivo, Wistar rats; details: -1 hour; for Time sexual incentive zone (s) / Time social incentive zone / n. of visits social incentive zone / n. of visits to sex. Incentive zone: male rats, n = 9, mean ± s.e.m.
Description: as §1, §2, §3

[3] = 0.03, 0.3 and 3 mg/kg i.p., result in words

Sequence of D3 (P35462 whole entry): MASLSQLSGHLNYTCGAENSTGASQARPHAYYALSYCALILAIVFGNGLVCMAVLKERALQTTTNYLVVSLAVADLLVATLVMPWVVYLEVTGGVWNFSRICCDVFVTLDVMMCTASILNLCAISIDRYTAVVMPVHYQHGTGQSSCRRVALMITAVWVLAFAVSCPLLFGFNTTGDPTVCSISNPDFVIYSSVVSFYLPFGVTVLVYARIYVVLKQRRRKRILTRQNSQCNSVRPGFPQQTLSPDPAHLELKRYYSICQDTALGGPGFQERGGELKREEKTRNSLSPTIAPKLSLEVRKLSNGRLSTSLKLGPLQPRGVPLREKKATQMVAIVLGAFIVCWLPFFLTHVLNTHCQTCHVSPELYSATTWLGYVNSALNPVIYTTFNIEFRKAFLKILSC

SMILES: Cc1ncoc1-c1nnc(SCCCN2C[C@@H]3C[C@]3(c3ccc(C(F)(F)F)cc3F)C2)n1C.Cl (single isomer, unassigned) [Example 40]
- effect on ejaculation patterns (male rats [1]; [3]): significant increase in the number of mounts, ejaculation latency and post-ejaculatory interval
- Ejaculation latency (male rats [1]; 0.03 mg/kg i.p.): 202.2 ± 19.6 s
- Intromission latency (male rats [1]; 0.03 mg/kg i.p.): 6.3 ± 0.8 s
- Mount latency (male rats [1]; 0.03 mg/kg i.p.): 4.6 ± 0.8 s
- Post ejaculatory interval (male rats [1]; 0.03 mg/kg i.p.): 403.0 ± 37.4 s
- n. of intromissions (male rats [1]; 0.03 mg/kg i.p.): 15.8 ± 1.3
- n. of mounts (male rats [1]; 0.03 mg/kg i.p.): 3.4 ± 0.7
- Ejaculation latency (male rats [1]; 0.3 mg/kg i.p.): 228.3 ± 53.3 s
- Intromission latency (male rats [1]; 0.3 mg/kg i.p.): 7.0 ± 1.1 s
- Mount latency (male rats [1]; 0.3 mg/kg i.p.): 5.3 ± 0.8 s
- Post ejaculatory interval (male rats [1]; 0.3 mg/kg i.p.): 455.3 ± 73.4 s
- n. of intromissions (male rats [1]; 0.3 mg/kg i.p.): 15.6 ± 1.5
- n. of mounts (male rats [1]; 0.3 mg/kg i.p.): 2.3 ± 0.8
- Ejaculation latency (male rats [1]; 3 mg/kg i.p.): 272.8 ± 41.6 s
- Intromission latency (male rats [1]; 3 mg/kg i.p.): 8.8 ± 2.0 s
- Mount latency (male rats [1]; 3 mg/kg i.p.): 6.4 ± 1.5 s
- Post ejaculatory interval (male rats [1]; 3 mg/kg i.p.): 485.1 ± 67.3 s
- n. of intromissions (male rats [1]; 3 mg/kg i.p.): 16.8 ± 2.1
- n. of mounts (male rats [1]; 3 mg/kg i.p.): 4.8 ± 1.2
- fpKi (D3) higher than the other enantiomer (D3): > 1 log-unit
- effect on sexual desire of male rats exposed to sexual and social stimuli (male rats [2]; [3]): did not affect sexual desire
- Time sexual incentive zone (s) (male rats [2]; 0.03 mg/kg i.p.): 367.57 ± 23.53++ s
- Time social incentive zone (male rats [2]; 0.03 mg/kg i.p.): 73.69 ± 12.48 s
- n. of visits social incentive zone (male rats [2]; 0.03 mg/kg i.p.): 15.33 ± 1.60
- n. of visits to sex. Incentive zone (male rats [2]; 0.03 mg/kg i.p.): 23.44 ± 1.95++
- Time sexual incentive zone (s) (male rats [2]; 0.3 mg/kg i.p.): 335.12 ± 32.47++ s
- Time social incentive zone (male rats [2]; 0.3 mg/kg i.p.): 86.84 ± 13.38 s
- n. of visits social incentive zone (male rats [2]; 0.3 mg/kg i.p.): 17.44 ± 2.49
- n. of visits to sex. Incentive zone (male rats [2]; 0.3 mg/kg i.p.): 23.89 ± 2.06++
- Time sexual incentive zone (s) (male rats [2]; 3 mg/kg i.p.): 355.91 ± 13.70++ s
- Time social incentive zone (male rats [2]; 3 mg/kg i.p.): 76.83 ± 10.05 s
- n. of visits social incentive zone (male rats [2]; 3 mg/kg i.p.): 14.00 ± 1.85
- n. of visits to sex. Incentive zone (male rats [2]; 3 mg/kg i.p.): 21.78 ± 1.72++
